Consider 2 compounds from PMC12257413, “Discovery of a Novel sp^3‑Rich M1 Positive Allosteric Modulators (PAMs) Chemotype via Scaffold Hopping” (ACS Medicinal Chemistry Letters, 2025).

One data set can be described thus: ElogD 7.4. The format is physicochemical. Particulars: pH 7.4. The text has this: 4 Detailed In Vitro and In Vivo Profiles for Selected M1 PAMs ^a | column: 17k; 17g
A short description of data set [1]: Intrinsic clearance in rat hepatic microsomes, predicted hepatic clearance. The class given is in vitro ADME. The settings on record: predicted hepatic clearance from rat hepatic microsomes. The method, then:
A similar approach was used to determine the degree of brain homogenate binding, which employed the same methodology and procedure with the following modifications: 1) a final compound concentration of 1 μM was used, 2) naïve rat brains were homogenized in DPBS (1:3 composition of brain: DPBS, w/w) using a Mini-Bead Beater™ machine in order to obtain brain homogenate, which was then treated in the same manner as the plasma samples in the previously described plasma protein binding assay. […]
same manner as the plasma samples in the previously described plasma protein binding assay. Fraction unbound for both plasma and brain samples was determined using Equation 4.
Equation 4 Determination of fraction unbound in plasma.
The diluted fraction unbound (fu2) in brain was calculated in the same manner by using brain homogenate rather than plasma. Undiluted fraction unbound for the brain was calculated using Equation 5 […]
Equation 5 Determination of fraction unbound in brain. […]
Human or rat hepatic microsomes (0.5 mg/mL) and 1 µM test compound were incubated in 100 mM potassium phosphate pH 7.4 buffer with 3 mM MgCl 2 at 37 °C with constant shaking. […] The in vitro half-life (1/2, min, Eq. 1), intrinsic clearance (CL int, mL/min/kg, Eq. 2), and subsequent predicted hepatic clearance (CLhep, mL/min/kg, Eq. 3) was determined employing the following equations: […]

As to `Cn1cc(-c2ccc(Cc3cc(C(=O)N[C@H]4CCCC[C@@H]4O)nn3C3CCCC3)cc2)cn1` [17k], the chromatographic logD (in general, lipophilicity estimated from chromatographic retention) in the data set “ElogD 7.4” came out at 4.15. Besides, the “Rat CLHEP” value in data set [1] is on record as 49.5 mL/min/kg.

The compound `Cn1cc(-c2ccc(Cc3cc(C(=O)N[C@H]4CCOC[C@@H]4O)nn3C3CCCC3)cc2)cn1` [17g] registered a chromatographic logD in “ElogD 7.4” of 3.05. In addition, in data set [1], the “Rat CLHEP” value is given as 32.8 mL/min/kg.
